Structures can show the parent of a compound that is named as a salt.
Target: T1, truncated form of PTP1B (corresponding to the first 321 amino acids) (Homo sapiens, UniProt P18031)
T1 construct: a truncated form of PTP1B (corresponding to the first 321 amino acids); made in house; host or cells: E. coli
T1 sequence (P18031 1-321): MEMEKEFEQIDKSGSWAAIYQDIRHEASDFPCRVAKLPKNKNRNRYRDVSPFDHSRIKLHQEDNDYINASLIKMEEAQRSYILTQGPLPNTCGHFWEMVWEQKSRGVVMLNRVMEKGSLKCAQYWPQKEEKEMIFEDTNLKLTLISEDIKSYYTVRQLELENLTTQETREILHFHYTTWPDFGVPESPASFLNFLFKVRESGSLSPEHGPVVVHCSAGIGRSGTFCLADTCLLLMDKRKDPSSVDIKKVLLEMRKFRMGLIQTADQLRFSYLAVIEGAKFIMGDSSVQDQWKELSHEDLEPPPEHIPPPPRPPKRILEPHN
Assay: Inhibition of PTP1B, p-nitrophenyl phosphate substrate
Type: biochemical
Details: substrate p-nitrophenyl phosphate 0.16 to 10 mM; 100 mM sodium acetate pH 5.5; 25° C. for 60 minutes; absorbance at 405 nm
Experimental: The assay conditions are as follows. Appropriate concentrations of the compounds of the invention are added to the reaction mixtures containing different concentrations of the substrate, p-nitrophenyl phosphate (range: 0.16 to 10 mM—final assay concentration). The buffer used was 100 mM sodium acetate pH 5.5, 50 mM sodium chloride, 0.1% (w/v) bovine serum albumin and 5 mM dithiothreitol (total volume […]). The reaction was started by addition of the enzyme and carried out in microtiter plates at 25° C. for 60 minutes. The reactions are stopped by addition of NaOH. […] The data are analyzed using nonlinear regression fit to classical Michaelis Menten enzyme kinetic models. Inhibition is expressed as Ki values in μM.

Row | SMILES | Ki [µM]
1 | O=C(O)C(=O)Nc1sc2c(c1C(=O)O)CCN(C(=O)c1ccccc1)C2 [Example 1, 6-Benzoyl-2-(oxalyl-amino)-4,5,6,7-tetrahydro-thien[2,3-c]pyridine-3-carboxylic acid, Mono Sodium Salt] | 51
2 | O=C(O)C(=O)Nc1sc2c(c1C(=O)O)CCN(CCc1ccccc1)C2 [Example 6] | 3
